According to US20100331357A1, “PHARMACEUTICAL COMPOSITION” (TAKEDA PHARMACEUTICAL COMPANY LIMITED, priority 2008, published 2010):

Legend:
Type in all cases: physicochemical
[1] = Solubility by eye observation with stepwise addition of solution; conditions: thermodynamic from solid
Procedure: (§1) Each of the solutions (0.1 mL) shown in Table 1 was added to compound A1 hydrochloride (about 2 mg), and solubility was confirmed with eye observation. When insoluble materials were recognized, the solution (0.1 mL) was further added, and solubility was confirmed by eye observation in the same manner. When insoluble materials were still recognized, the solution was thereafter added in the amounts of 0.05 mL, 0.15 mL, 0.4 mL, 0.4 mL, 0.4 mL and 0.4 mL, respectively in this order, and solubility was confirmed by eye observation. The concentration of the compound A1 hydrochloride determined from the total amount of the solution added up to the time point at which insoluble materials were not recognized, was taken as the solubility.
as §1, with “Table 2” for “Table 1”
as §1, with “Table 3” for “Table 1”
as §1, with “Table 4” for “Table 1”

[2] = Saturation solubility, shaken 18 hours at 25° C., filtered, HPLC; conditions: thermodynamic from solid, 40 mM Citric acid
Procedure: To each of the various solutions shown in Table 5, compound A1 hydrochloride was added in an amount exceeding the saturation concentration, and the mixture was shaken for 18 hours at 25° C.

[3] = Saturation solubility, shaken 18 hours at 5° C., filtered, HPLC; conditions: thermodynamic from solid, 40 mM Citric acid, NaOH, as free form
Procedure: To each of the various solutions shown in Table 6, compound A1 hydrochloride was added in an amount exceeding the saturation concentration, and the mixture was shaken for 18 hours at 5° C.

In the case of `CCS(=O)(=O)c1cccc(-c2cc(C(=O)NC3CCN(C)CC3)c(C)c3[nH]c4ncc(C)cc4c23)c1.Cl` [compound A1 hydrochloride, 5-(3-(ethylsulfonyl)phenyl)-3,8-dimethyl-N-(1-methylpiperidin-4-yl)-9H-pyrido[2,3-b]indole-7-carboxamide hydrochloride], the solubility ([1]; 5 w/v % D-mannitol in water for injection, saline or isotonic) is reported as roughly 1100 µg/mL, the solubility ([1]; 5 w/v % D-sorbitol in water for injection, saline or isotonic) is reported as roughly 1300 µg/mL and the solubility ([1]; 5 w/v % glucose in water for injection, saline or isotonic) is reported as roughly 1300 µg/mL. It also gave a solubility ([1]; 10 w/v % Dextran 40 in water for injection, aqueous with cosolvent or surfactant or cyclodextrin) of less than 1300 µg/mL, a solubility ([1]; 10 w/v % Polysorbate 20 in water for injection, aqueous with cosolvent or surfactant or cyclodextrin) of roughly 1800 µg/mL and a solubility ([1]; 10 w/v % Polysorbate 80 in water for injection, aqueous with cosolvent or surfactant or cyclodextrin) of roughly 2200 µg/mL. The solubility ([1]; 10 w/v % maltose in water for injection, saline or isotonic) was roughly 1400 µg/mL, the solubility ([1]; 10 w/v % sucrose in water for injection, saline or isotonic) was roughly 1200 µg/mL and the solubility ([1]; 30 w/v % maltosyl-β-cyclodextrin in water for injection, aqueous with cosolvent or surfactant or cyclodextrin) was roughly 10800 µg/mL. It also gave a solubility ([1]; aqueous with cosolvent or surfactant or cyclodextrin, 30 w/v % 2-Hydroxypropyl-β-cyclodextrin in water for injection) of roughly 10400 µg/mL, a solubility ([1]; aqueous with cosolvent or surfactant or cyclodextrin, 30 w/v % Sulfobutyl ether-β-cyclodextrin sodium salt (Captisol, clinical grade) in water for injection) of roughly 9200 µg/mL and a solubility ([1]; citric acid buffer solution, pH 2, aqueous buffer, 100 mM Citric acid buffer solution pH 2) of roughly 2100 µg/mL. It also gave a solubility ([1]; citric acid buffer solution, pH 3, aqueous buffer, 100 mM Citric acid buffer solution pH 3) of roughly 1000 µg/mL, a solubility ([1]; citric acid buffer solution, pH 4, aqueous buffer, 100 mM Citric acid buffer solution pH 4) of less than 1300 µg/mL and a solubility ([1]; citric acid buffer solution, pH 5, aqueous buffer, 100 mM Citric acid buffer solution pH 5) of less than 1300 µg/mL. For the same compound, the solubility ([1]; citric acid buffer solution, pH 7, aqueous buffer, 100 mM Citric acid buffer solution pH 7) was less than 1200 µg/mL, the solubility ([1]; citric acid buffer solution, pH 9, aqueous buffer, 100 mM Citric acid buffer solution pH 9) was less than 1200 µg/mL and the solubility ([1]; citric acid buffer solutions, aqueous buffer, citric acid buffer solutions of Table 1) was less than 8000 µg/mL. It also gave a solubility ([1]; cyclodextrin derivative solutions, aqueous with cosolvent or surfactant or cyclodextrin, all cyclodextrin derivative solutions shown in Table 4) of no less than 8000 µg/mL, a solubility ([1]; ethanol, organic solvent or mixture, 100 w/v % Ethanol) of less than 1200 µg/mL and a solubility ([1]; polyethylene glycol 300, organic solvent or mixture, 100 w/v % Polyethylene glycol 300) of less than 1100 µg/mL. It also gave a solubility ([1]; polyethylene glycol 400, organic solvent or mixture, 100 w/v % Polyethylene glycol 400) of less than 1300 µg/mL, a solubility ([1]; solutions of solubilizers, aqueous with cosolvent or surfactant or cyclodextrin, solutions of solubilizers in Table 3) of less than 8000 µg/mL and a solubility ([1]; solutions of sugars, saline or isotonic, solutions of sugars in Table 2) of less than 8000 µg/mL. The solubility ([1]; soybean oil, oil or lipid, 100 w/v % Soybean oil) was less than 1200 µg/mL, the solubility ([1]; water for injection, water) was less than 1200 µg/mL and the solubility at 18 h ([2]; aqueous with cosolvent or surfactant or cyclodextrin, 5 w/v % Sulfobutyl ether-β-cyclodextrin sodium salt (Captisol, research grade), HCl, pH 2.5, as free form) was 29200 µg/mL. The solubility at 18 h ([2]; aqueous with cosolvent or surfactant or cyclodextrin, 5 w/v % Sulfobutyl ether-β-cyclodextrin sodium salt (Captisol, research grade), NaOH, pH 4, as free form) was 24500 µg/mL, the solubility at 18 h ([2]; aqueous with cosolvent or surfactant or cyclodextrin, 5 w/v % Sulfobutyl ether-β-cyclodextrin sodium salt (Captisol, research grade), NaOH, pH 5, as free form) was 22900 µg/mL and the solubility at 18 h ([2]; citric acid solution in water for injection, aqueous buffer, water for injection, HCl, pH 2.5, as compound A1 (free form)) was 8000 µg/mL. The solubility at 18 h ([2]; citric acid solution in water for injection, aqueous buffer, water for injection, NaOH, pH 4, as free form) was 300 µg/mL, the solubility at 18 h ([2]; citric acid solution in water for injection, aqueous buffer, water for injection, NaOH, pH 5, as free form) was 100 µg/mL and the solubility at 18 h ([3]; citric acid solution in water for injection, pH 4, aqueous buffer, water for injection) was 100 µg/mL. It also gave a solubility at 18 h ([3]; pH 4, aqueous with cosolvent or surfactant or cyclodextrin, 2.5 w/v % Sulfobutyl ether-β-cyclodextrin sodium salt) of 13000 µg/mL, a solubility at 18 h ([3]; pH 4, aqueous with cosolvent or surfactant or cyclodextrin, 5 w/v % Sulfobutyl ether-β-cyclodextrin sodium salt) of 20900 µg/mL and a solubility at 18 h ([3]; pH 4, aqueous with cosolvent or surfactant or cyclodextrin, 7.5 w/v % Sulfobutyl ether-β-cyclodextrin sodium salt) of 27600 µg/mL. For the same compound, the solubility at 18 h ([3]; pH 4, aqueous with cosolvent or surfactant or cyclodextrin, 10 w/v % Sulfobutyl ether-β-cyclodextrin sodium salt) was 32800 µg/mL, the solubility at 18 h ([3]; pH 4, aqueous with cosolvent or surfactant or cyclodextrin, 12 w/v % Sulfobutyl ether-β-cyclodextrin sodium salt) was 35400 µg/mL and the solubility at 18 h ([3]; pH 4, aqueous with cosolvent or surfactant or cyclodextrin, 20 w/v % Sulfobutyl ether-β-cyclodextrin sodium salt) was 43600 µg/mL. For the same compound, the solubility at 18 h ([3]; pH 4, aqueous with cosolvent or surfactant or cyclodextrin, 30 w/v % Sulfobutyl ether-β-cyclodextrin sodium salt) was 49900 µg/mL.
